Results reported in PMC6514978, “Synthesis, Antibacterial Activities, Mode of Action and Acute Toxicity Studies of New Oxazolidinone-Fluoroquinolone Hybrids” (Molecules, 2019).
In brackets after ≈: the same amount, converted by molar mass. Values belong to the compound of their own block, whether it stands above or below them.

Tests used:
[1] = tested on: H. parasuis (34) clinical isolates; assay: Susceptibility of clinical isolates (MIC); type: cell-based, Haemophilus parasuis; details: Glaesserella parasuis
Protocol: (§1) Susceptibility testing of oxazolidinone-fluoroquinolone hybrids against various bacteria was performed by the broth microdilution method as outlined by the Clinical and Laboratory Standards Institute (CLSI). Three types of media, including cation-adjusted Mueller Hinton broth, Haemophilus Test Medium and cation-adjusted Mueller Hinton broth that contained 3%–5% lysed horse blood, were used to culture the corresponding bacteria. […] A final inoculum of 5 × 10^5 CFU/mL was used and plates were read after incubation for 16–24 h at 35 °C. […] Standard quality control strains (ATCC) were included throughout. Each determination was repeated in triplicate.

[2] = tested on: S. epidermidis (10) clinical isolates; assay: Susceptibility of clinical isolates (MIC); type: cell-based, Staphylococcus epidermidis
Protocol: as §1

[3] = tested on: S. haemolyticus (32) clinical isolates; assay: Susceptibility of clinical isolates (MIC); type: cell-based, Staphylococcus haemolyticus
Protocol: as §1

[4] = tested on: MRSE; assay: MIC against drug-resistant strain; type: cell-based, S. epidermidis; details: Staphylococcus epidermidis
Protocol: (§2) 6 standard strains and 3 clinical isolates were used to the preliminary evaluation of in vitro antibacterial activities of oxazolidinone-fluoroquinolone hybrids.
as §1

[5] = tested on: S. pneumoniae (13) clinical isolates; assay: Susceptibility of clinical isolates (MIC); type: cell-based, Streptococcus pneumoniae
Protocol: as §1

[6] = tested on: E. faecium (47) clinical isolates; assay: Susceptibility of clinical isolates (MIC); type: cell-based, Enterococcus faecium
Protocol: as §1

[7] = tested on: S. suis (9) clinical isolates; assay: Susceptibility of clinical isolates (MIC); type: cell-based, Streptococcus suis; details: Streptococcus suis
Protocol: as §1

[8] = tested on: CIP-resistant S. aureus; assay: MIC against drug-resistant strain; type: cell-based; details: Staphylococcus aureus
Protocol: as §2, §1

[9] = tested on: MRSA; assay: MIC against drug-resistant strain; type: cell-based; details: Staphylococcus aureus
Protocol: as §2, §1

[10] = tested on: VAN and quinolone-resistant E. faecium; assay: MIC against drug-resistant strain; type: cell-based; details: Enterococcus faecium
Protocol: as §2, §1

[11] = tested on: LZD and quinolone-resistant E. faecium; assay: MIC against drug-resistant strain; type: cell-based; details: Enterococcus faecium
Protocol: as §2, §1

[12] = tested on: CIP-resistant S. haemolyticus; assay: MIC against drug-resistant strain; type: cell-based; details: Staphylococcus haemolyticus
Protocol: as §2, §1

[13] = tested on: VAN and quinolone-resistant S. pneumoniae; assay: MIC against drug-resistant strain; type: cell-based; details: Streptococcus pneumoniae
Protocol: as §2, §1

[14] = tested on: LZD-resistant E. faecalis; assay: microbe, parasite or virus in culture; type: cell-based; details: Enterococcus faecalis
Protocol: as §2, §1

[15] = tested on: S. aureus (46) clinical isolates; assay: Susceptibility of clinical isolates (MIC); type: cell-based, Staphylococcus aureus
Protocol: as §1

[16] = tested on: H. influenzae (ATCC49247); assay: MIC, broth microdilution (CLSI), standard strain; type: cell-based; details: Haemophilus influenzae
Text: (§3) 6 standard strains and 3 clinical isolates were used to the preliminary evaluation of in vitro antibacterial activities of oxazolidinone-fluoroquinolone hybrids. For the further evaluation of hybrids OBP-4 and OBP-5, 263 clinical isolates including S. aureus (46), S. haemolyticus(32), S. epidermidis (10), E. faecalis (72), E. faecium (47), S. pneumoniae (13), H. parasuis (34), S. suis (9), and 8 resistant strains including MRSA, MRSE, CIP-resistant S. aureus and S. haemolyticus, VAN and quinolone-resistant S. pneumoniae, LZD-resistant E. faecalis, LZD/VAN and quinolone-resistant E. faecium were collected and tested.
(§4) Susceptibility testing of oxazolidinone-fluoroquinolone hybrids against various bacteria was performed by the broth microdilution method as outlined by the Clinical and Laboratory Standards Institute (CLSI). Three types of media, including cation-adjusted Mueller Hinton broth, Haemophilus Test Medium and cation-adjusted Mueller Hinton broth that contained 3%–5% lysed horse blood, were used to culture the corresponding bacteria. All compounds including comparator drugs were dissolved in an appropriate solvent at a concentration of 2.048 mg/mL and then serially diluted two-fold to provide the required concentrations. A final inoculum of 5 × 10^5 CFU/mL was used and plates were read after incubation for 16–24 h at 35 °C. […] Standard quality control strains (ATCC) were included throughout. Each determination was repeated in triplicate.

[17] = tested on: S. aureus (ATCC29213); assay: MIC, broth microdilution (CLSI), standard strain; type: cell-based; details: Staphylococcus aureus
Text: as §3, §4

[18] = tested on: S. pneumoniae (ATCC49619); assay: MIC, broth microdilution (CLSI), standard strain; type: cell-based; details: Streptococcus pneumoniae
Text: as §3, §4

[19] = tested on: P. Aeruginosa (ATCC27853); assay: MIC, broth microdilution (CLSI), standard strain; type: cell-based; details: Pseudomonas aeruginosa; P. Aeruginosa (ATCC27853); read-out: MIC
Text: as §3, §4

[20] = tested on: E. faecalis (ATCC29212); assay: MIC, broth microdilution (CLSI), standard strain; type: cell-based; details: Enterococcus faecalis; E. faecalis (ATCC29212); read-out: MIC
Text: as §3, §4

[21] = tested on: E. coli (ATCC25922); assay: MIC, broth microdilution (CLSI), standard strain; type: cell-based; details: Escherichia coli; E. coli (ATCC25922); read-out: MIC
Text: as §3, §4

[22] = tested on: S. agalactiae^R (13B317), levofloxacin-resistant S. agalactiae; assay: MIC, broth microdilution (CLSI), clinical isolate; type: cell-based; details: Streptococcus agalactiae; levofloxacin-resistant S. agalactiae (13B317)
Text: as §3, §4

[23] = tested on: MRSA (13B262); assay: MIC, broth microdilution (CLSI), clinical isolate; type: cell-based; details: Staphylococcus aureus
Text: as §3, §4

[24] = tested on: VRE (13B330); assay: MIC, broth microdilution (CLSI), clinical isolate; type: cell-based, vancomycin-resistant enterococcus; details: Enterococcus
Text: as §3, §4

Compound: CN[C@H](CC(C)C)C(=O)N[C@H]1C(=O)N[C@@H](CC(N)=O)C(=O)N[C@H]2C(=O)N[C@H]3C(=O)N[C@H](C(=O)N[C@H](C(=O)O)c4cc(O)cc(O)c4-c4cc3ccc4O)[C@H](O)c3ccc(c(Cl)c3)Oc3cc2cc(c3O[C@@H]2O[C@H](CO)[C@@H](O)[C@H](O)[C@H]2O[C@H]2C[C@](C)(N)[C@H](O)[C@H](C)O2)Oc2ccc(cc2Cl)[C@H]1O [VAN, vancomycin]
MIC50 [1]: 8 µg/mL (≈ 5.52 µM)
MIC90 [1]: > 32 µg/mL
CLSI %S (susceptible) ([2]; S. epidermidis clinical isolates, CLSI criteria): 100.0/- %
MIC50 ([2]; Staphylococcus epidermidis): 1 µg/mL (≈ 0.69 µM)
MIC90 ([2]; Staphylococcus epidermidis): 2 µg/mL (≈ 1.38 µM)
MIC ([2]; Staphylococcus epidermidis, read-out: MIC Range): 1 to 2 µg/mL (≈ 0.69 to 1.38 µM)
CLSI %S (susceptible) ([3]; S. haemolyticus clinical isolates, CLSI criteria): 96.2/- %
MIC50 ([3]; Staphylococcus haemolyticus): 0.5 µg/mL (≈ 0.345 µM)
MIC90 ([3]; Staphylococcus haemolyticus): 2 µg/mL (≈ 1.38 µM)
MIC ([3]; Staphylococcus haemolyticus, read-out: MIC Range): 0.0625 to 4 µg/mL (≈ 0.0431 to 2.76 µM)
MIC [4]: 1 µg/mL (≈ 0.69 µM)
CLSI %S (susceptible) ([5]; S. pneumoniae clinical isolates, CLSI criteria): 53.8/- %
MIC50 ([5]; Streptococcus pneumoniae): 1 µg/mL (≈ 0.69 µM)
MIC90 ([5]; Streptococcus pneumoniae): 32 µg/mL (≈ 22.1 µM)
CLSI %S (susceptible) ([6]; E. faecium clinical isolates, CLSI criteria): 100.0/- %
MIC Range ([6]; E. faecium, 47 clinical isolates): 0.5 to 4 µg/mL
MIC50 ([6]; Enterococcus faecium): 2 µg/mL (≈ 1.38 µM)
MIC90 ([6]; Enterococcus faecium): 4 µg/mL (≈ 2.76 µM)
MIC50 [7]: 0.25 µg/mL (≈ 0.173 µM)
MIC90 [7]: 2 µg/mL (≈ 1.38 µM)
MIC ([7]; read-out: MIC Range): 0.125 to 2 µg/mL (≈ 0.0863 to 1.38 µM)
MIC [8]: 0.25 µg/mL (≈ 0.173 µM)
MIC [9]: 1 µg/mL (≈ 0.69 µM)
MIC [10]: 16 µg/mL (≈ 11 µM)
MIC [11]: 4 µg/mL (≈ 2.76 µM)
MIC [12]: 2 µg/mL (≈ 1.38 µM)
MIC [13]: > 32 µg/mL
MIC [14]: 2 µg/mL (≈ 1.38 µM)
CLSI %S (susceptible) ([15]; S. aureus clinical isolates, CLSI criteria): 100.0/- %
MIC50 ([15]; Staphylococcus aureus): 0.5 µg/mL (≈ 0.345 µM)
MIC90 ([15]; Staphylococcus aureus): 0.5 µg/mL (≈ 0.345 µM)
MIC ([15]; Staphylococcus aureus, read-out: MIC Range): 0.25 to 0.5 µg/mL (≈ 0.173 to 0.345 µM)

MIC [16]: 1 µg/mL (≈ 1.66 µM)
MIC [17]: 1 µg/mL (≈ 1.66 µM)
MIC [18]: 0.25 µg/mL (≈ 0.415 µM)
MIC [19]: 64 µg/mL (≈ 106 µM)
MIC [20]: 1 µg/mL (≈ 1.66 µM)
MIC [21]: 4 µg/mL (≈ 6.64 µM)
MIC [22]: 0.5 µg/mL (≈ 0.83 µM)
MIC [23]: 2 µg/mL (≈ 3.32 µM)
MIC [24]: 1 µg/mL (≈ 1.66 µM)
Compound: CN1COc2c(N3CCC(O)(COc4ccc(N5C[C@H](CO)OC5=O)cc4F)CC3)c(F)cc3c(=O)c(C(=O)O)cn1c23 [OBP-1]
